Here are results for 2 compounds from patent publication US6414138B1, “Process for producing mixtures rich in 1,6-GPS or 1,1-GPM” (Sudzucker Aktiengesellschaft, priority 1997, dated 2002).

A short description of the data set: Solubility of 1,1-GPM and 1,6-GPS in water / aqueous suspension. Type of data set: physicochemical. The conditions noted are these: seed crystals mixed into concentrated aqueous solution of hydrogenated isomaltulose, about 50-65° C. On the procedure: Since the solubility equilibrium is temperature-dependent, the concentration ratio of the two components can advantageously be preset. After the solubility equilibrium is adjusted, the 1,1-GPM and 1,6-GPS concentration in the products can be controlled by setting the rate for the temperature change.
In another preferred embodiment of the invention, a suspension which is formed by the addition of, for example, crystalline hydrogenated isomaltulose in water, is heated to, for example, 85° C. to completely dissolve the solute, whereafter the cooling step to crystallize the solution is combined with a seeding step. The seeding step, however, is not essential. Advantageously, powdered hydrogenated isomaltulose in crystalline form or in the form of a suspension can be used. Most advantageously, the suspension is formed in water or in an organic solvent, such as isopropanol, and a food-compatible dispersing agent acting as a solvent can be added, if necessary. […]
The two constituents of hydrogenated isomaltulose, i.e. 1,1-GPM and 1,6-GPS, have a different solubility in aqueous solutions (FIG. 4). […] The 1,1-GPM component, which crystallizes more readily, is concentrated in the solid fraction of the suspension, whereas the 1,6-GPS component, which crystallizes less readily, goes preferentially into solution. […]

For `OC[C@@H](O)[C@@H](O)[C@H](O)[C@H](O)CO[C@H]1O[C@H](CO)[C@@H](O)[C@H](O)[C@H]1O` [1,1-GPM, 1-0-α-D-Glucopyranosyl-D-mannite], the “solubility (in words)” value is given as “only slightly soluble”. Under `OC[C@H](O)[C@@H](O)[C@H](O)[C@H](O)CO[C@H]1O[C@H](CO)[C@@H](O)[C@H](O)[C@H]1O` [1,6-GPS, 6-0-α-D-Glucopyranosyl-D-sorbite] stands “readily soluble”.
